In one series the test system is gastric acid secretion. Briefly: Gastric antisecretory effect (pylorus ligated rats). The series is classed as in vivo. The note with it: Rattus norvegicus; po; male Wistar rats; pylorus ligated 1 hour after administration, total acid after 4 hours; read-out: Gastric Antisecretory Effect, ED50 (inhibition of total gastric acid by 50%). The procedure:
Exactly 1 hour after the completion of the administration, the pyloric regions of their stomachs were ligated. After 4 hours, the total acid contained in the gastric juice of each rat was determined. […] To collect the gastric juice, the rats were killed, and their stomachs were cut open. The total acid in the gastric juice was determined by titrating the juice with aqueous 0.1N sodium hydroxide solution until its pH reached 7.0. As a control experiment, the total acid contained in the gastric juice of rats not administered with the compounds was also determined in the same manner as above. […] In order to determine the ED50 value, the difference in total acid between a group of rats administered with a test compound and a group of rats not administered with any of the test compounds was calculated, and the difference was then divided by the total acid of the latter rats, so as to obtain a rate of inhibition. With inhibition rates thus obtained, a dosage-effect curve was plotted, and the ED50 value was determined on the basis of the curve. In the table is also shown, for the purpose of comparison, the ED50 value of omeprazole determined in the same manner as above.

The nature of another series: Acute toxicity (LD50). The note with it: rat, in vivo, 5 weeks old male Wistar rats. The procedure:
Using 5 weeks old male Wistar rats, acute toxicity (LD50) of two representative compounds (compounds obtained in Examples 1 and 8) of the present compounds [I] was tested.

Series [1] in a line: Stability during storage (60° C., 75% R.H., 6 days), residual rate by thin layer densitometry. The note with it: storage at 75% r.h. The series is classed as physicochemical. The procedure: In the thin layer densitometry, spots each containing 100 μg of a test sample were applied onto thin layer plates. The spots were developed with a mixture of chloroform and ethanol (10:1, by volume). As the thin layer plates, TLC Plate Silica Gel 60 F254 (10×20 cm, 0.25 mm in thickness, a product of Merck & Co., Inc.) was used. The distance of development was 15 cm. The densitometry was effected by use of a Shimadzu Dichroic Chromatoscanner CS-910 (manufactured by Shimadzu Corporation) at a wavelength of 280 or 300 nm.

The next series has as its target T1, (H^+ +K^+)-ATPase (Sus scrofa, UniProt P19156).
T1 construct: prepared from the fundus ventriculi of fresh hog stomachs; from tissue; host or cells: fundus ventriculi of fresh hog stomachs, prepared by the method of Saccomani et al. (J. Biol. Chem. 251, 7690, 1976)
Briefly: (H^+ +K^+)-ATPase inhibiting activity. In kind it is biochemical. The note with it: enzyme from hog fundus ventriculi; incubation with compound 35° to 37° C., 5 to 30 minutes. The procedure: The (H^+ +K^+)-ATPase inhibiting activity of the present compounds [I] was determined in the following manner: […] The (H^+ +K^+)-ATPase used in the above test was prepared from the fundus ventriculi of fresh hog stomachs in accordance with the method of Saccomani et al. [The Journal of Biological Chemistry, Vol. 251, No. 23, p. 7690 (1976)]. […] The colorimetric measurement was effected at a wavelength range of from 360 to 400 nm. As a control experiment, the residual activity of (H^+ +K^+)-ATPase was determined in the same manner as above without addition of any test compounds. […] To be more specific, the difference between the colorimetric reading obtained in the control experiment and the colorimetric reading obtained with a test compound is calculated at various molar concentrations, and the difference is divided by the reading of the control experiment to give a rate of inhibition. With inhibition rates thus obtained, a density-inhibition rate curve is plotted, and the IC50 value is determined based on the curve. In the table is also shown, for the purpose of comparison, the (H^+ +K^+)-ATPase inhibiting activity of omeprazole determined in the same manner as above.

The conditions of series [2]: stored without any special precautions; background statement; cited from earlier work.
[3] abbreviates: ip, administered intraperitoneally.

Each structure is given as a SMILES string.

Results on ten molecules are retold here after US4753955A, “Benzimidazole derivatives” (Tokyo Tanabe Company, Ltd., priority 1986, dated 1988).

T1 sequence (P19156 2-1034 limits assumed): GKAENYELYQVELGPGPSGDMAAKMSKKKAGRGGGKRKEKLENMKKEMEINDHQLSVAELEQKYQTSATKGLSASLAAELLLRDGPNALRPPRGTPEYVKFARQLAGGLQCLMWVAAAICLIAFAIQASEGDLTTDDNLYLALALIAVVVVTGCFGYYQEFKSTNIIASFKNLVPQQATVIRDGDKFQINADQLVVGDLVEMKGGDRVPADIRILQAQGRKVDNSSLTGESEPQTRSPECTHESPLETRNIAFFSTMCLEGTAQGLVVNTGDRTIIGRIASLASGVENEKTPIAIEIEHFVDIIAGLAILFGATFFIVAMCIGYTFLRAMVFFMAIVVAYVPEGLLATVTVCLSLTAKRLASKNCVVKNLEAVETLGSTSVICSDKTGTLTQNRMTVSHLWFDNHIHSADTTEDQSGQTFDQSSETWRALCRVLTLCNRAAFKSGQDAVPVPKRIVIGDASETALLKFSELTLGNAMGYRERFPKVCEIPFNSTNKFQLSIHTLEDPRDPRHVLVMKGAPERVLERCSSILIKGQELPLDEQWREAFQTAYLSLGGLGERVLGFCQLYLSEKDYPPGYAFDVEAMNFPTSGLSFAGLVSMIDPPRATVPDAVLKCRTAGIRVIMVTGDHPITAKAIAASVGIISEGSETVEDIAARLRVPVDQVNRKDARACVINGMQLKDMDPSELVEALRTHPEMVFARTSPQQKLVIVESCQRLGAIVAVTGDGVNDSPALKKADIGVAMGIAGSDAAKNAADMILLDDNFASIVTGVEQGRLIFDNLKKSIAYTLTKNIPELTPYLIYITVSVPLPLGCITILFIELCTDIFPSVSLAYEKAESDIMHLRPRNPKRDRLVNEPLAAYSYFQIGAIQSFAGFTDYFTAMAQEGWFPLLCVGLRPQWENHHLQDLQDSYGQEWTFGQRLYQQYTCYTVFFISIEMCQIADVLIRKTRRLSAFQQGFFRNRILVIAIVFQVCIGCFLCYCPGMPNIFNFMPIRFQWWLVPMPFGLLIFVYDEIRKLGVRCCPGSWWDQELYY
T1 sequence (P18434 whole entry partner): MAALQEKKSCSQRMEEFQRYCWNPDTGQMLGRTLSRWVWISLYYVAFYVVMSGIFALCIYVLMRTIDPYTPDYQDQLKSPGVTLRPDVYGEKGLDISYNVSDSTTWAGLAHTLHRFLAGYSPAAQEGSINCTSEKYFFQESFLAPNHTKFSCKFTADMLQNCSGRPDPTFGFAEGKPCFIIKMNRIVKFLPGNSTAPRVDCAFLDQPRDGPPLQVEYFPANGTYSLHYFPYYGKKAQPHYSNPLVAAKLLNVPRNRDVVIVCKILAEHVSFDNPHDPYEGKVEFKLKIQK

Turning to `Cc1cnc(C[S+]([O-])c2nc3cc(OCC4CC4)ccc3[nH]2)c(C)c1` (stereo not drawn) [Example 1, 2-[2-(3,5-dimethyl)pyridylmethylsulfinyl]-5-cyclopropylmethyloxybenzimidazole], the ED50 in the series with gastric acid secretion came to 17.8 mg/kg. Moreover, the LD50 in “Acute toxicity (LD50)” (setting [3]) is not below 500 mg/kg; in the series “Acute toxicity (LD50)” (po, administered orally) it was not below 4000 mg/kg. In addition, the fraction remaining at 144 h in series [1] turned out to be 91%. For the same molecule, the IC50 at (H^+ +K^+)-ATPase worked out at 1800 µM.

In turn, `Cc1ccnc(C[S+]([O-])c2nc3cc(OCC4CC4)ccc3[nH]2)c1` (stereo not drawn) [Example 2, 2-[2-(4-methyl)pyridylmethylsulfinyl]-5-cyclopropylmethyloxybenzimidazole] gave a fraction remaining at 144 h in series [1] of 59%. For the same molecule, on (H^+ +K^+)-ATPase, the concentration for half-maximal inhibition (IC50) was 2100 µM.

Consider `Cc1cnc(C[S+]([O-])c2nc3c(OCC4CC4)cccc3[nH]2)c(C)c1` (stereo not drawn) [Example 3, 2-[2-(3,5-dimethyl)pyridylmethylsulfinyl]-4-cyclopropylmethyloxybenzimidazole], for which the median effective dose (ED50) in the series on gastric acid secretion was 19.5 mg/kg. This molecule gave a share remaining at 144 h in series [1] of 88%. Besides, on (H^+ +K^+)-ATPase, the IC50 was 900 µM.

With `Cc1cnc(C[S+]([O-])c2nc3cc(OCC4CC4)ccc3[nH]2)c(C)c1C` (stereo not drawn) [Example 4, 2-[2-(3,4,5-trimethyl)pyridylmethylsulfinyl]-5-cyclopropylmethyloxybenzimidazole], the ED50 in the series with gastric acid secretion was found to be 22.1 mg/kg. Also, the share remaining at 144 h in series [1] is 94%. The IC50 on (H^+ +K^+)-ATPase is 1000 µM.

Turning to `Cc1cnc(C[S+]([O-])c2nc3c(OCC4CC4)cccc3[nH]2)c(C)c1C` (stereo not drawn) [Example 5, 2-[2-(3,4,5-trimethyl)pyridylmethylsulfinyl]-4-cyclopropylmethyloxybenzimidazole], the fraction remaining at 144 h in series [1] was found to be 86%. Besides, the IC50 at (H^+ +K^+)-ATPase stood at 1900 µM.

`COc1c(C)cnc(C[S+]([O-])c2nc3c(OCC4CC4)cccc3[nH]2)c1C` (stereo not drawn) [Example 6, 2-[2-(4-methoxy-3,5-dimethyl)pyridylmethylsulfinyl]-4-cyclopropylmethyloxybenzimidazole] showed a fraction remaining at 144 h in series [1] of 67%. Moreover, the IC50 on (H^+ +K^+)-ATPase was 1900 µM.

`COc1c(C)cnc(C[S+]([O-])c2nc3cc(OCC4CC4)ccc3[nH]2)c1C` (stereo not drawn) [Example 7, 2-[2-(4-methoxy-3,5-dimethyl)pyridylmethylsulfinyl]-5-cyclopropylmethyloxybenzimidazole]: the fraction remaining at 144 h in series [1] turned out to be 37%. Also, the IC50 at (H^+ +K^+)-ATPase was 1700 µM.

On to `COc1cc(C[S+]([O-])c2nc3cc(OCC4CC4)ccc3[nH]2)ncc1C` (stereo not drawn) [Example 8, 2-[2-(4-methoxy-5-methyl)pyridylmethylsulfinyl]-5-cyclopropylmethyloxybenzimidazole], for which the 50% effective dose (ED50) with gastric acid secretion was 25.9 mg/kg. Moreover, the LD50 in the series “Acute toxicity (LD50)” (setting [3]) was not below 500 mg/kg; in “Acute toxicity (LD50)” (po, administered orally), not below 4000 mg/kg. The molecule also had a share remaining at 144 h in series [1] of 32%. On (H^+ +K^+)-ATPase, the IC50 is 300 µM.

In turn, `COc1cc(C[S+]([O-])c2nc3c(OCC4CC4)cccc3[nH]2)ncc1C` (stereo not drawn) [Example 9, 2-[2-(4-methoxy-5-methyl)pyridylmethylsulfinyl]-4-cyclopropylmethyloxybenzimidazole] returned a share remaining at 144 h in series [1] of 76%. In addition, on (H^+ +K^+)-ATPase, the IC50 stood at 430 µM.

Regarding `COc1ccc2[nH]c([S+]([O-])Cc3ncc(C)c(OC)c3C)nc2c1` (stereo not drawn) [Omeprazole, 5-methoxy-2-[2-(4-methoxy-3,5-dimethyl)-pyridylmethylsulfinyl]benzimidazole, reference compound], in the series on gastric acid secretion, the ED50 came to 30.5 mg/kg. For the same molecule, the fraction remaining at 144 h in series [1] was found to be 5%. Besides, the “stability of omeprazole when stored (in words)” value in series [2] is reported as “degraded at an unexpectedly high rate”. The IC50 on (H^+ +K^+)-ATPase amounted to 1800 µM.

One may read the ED50 as the dose that gives a 50% effect, or the effect in half of the subjects. By LD50 is commonly meant the dose expected to kill half of the subjects tested. A higher LD50 goes with lower toxicity. One may read the share remaining as what is left of the initial amount, in per cent. Lower therefore signals more turnover. Broadly, the IC50 is the concentration that gives 50% inhibition.
